From patent US9783519B2, “Palladium/silver co-catalyzed tandem reactions synthesis of phenylacetophenone derivatives by oxabenzonorbornadienes with terminal alkynes and their anti-tumor or anti-cancer activities” (Hong Kong Baptist University, priority 2015, dated 2017)
Like-named read-outs stand apart in the source and are kept apart here.

Key:
[1] = system: MKN-45 (human gastric aednocarcinoma); assay: MTT cytotoxicity assay, MKN-45; type: cell-based; conditions: 48 hrs treatment
Method: (§1) Cytotoxic activities of all compounds were evaluated by MTT assay using KYSE-150 (human oesophagus carcinoma), MKN-45 (human gastric aednocarcinoma), DLD-1 (human colorectal carcinoma cell line), Hep G2 (human hepatocellular carcinoma). […] 3ag, 3al, 3an, 3ea and 3ha also have the same inhibitory effect on different cell lines with IC50 value lower than 10 μM. Thus, except 3ac, 3ad, 3ae, 3ah, and 3ab, the other compounds all exert definitely anti-cancer effect.
(§2) In this study, all compounds were dissolved in dimethyl sulfoxide (DMSO) to make stock solutions and further diluted in culture medium for this experiment. Human cancer cell lines, including one gastric adenocarcinoma cell line (MKN-45), one colon carcinoma cell line (DLD-1), one esophageal carcinoma cell line (KYSE-150) and one hepatocellular carcinoma cell line (HepG2) were cultured in RPMI 1640 or DMEM medium, containing 10% fetal bovine serum and 1% antibiotics (Penicillin and strep). The cell lines were cultured at 37° C. in a humidified environment containing 5% CO2. To determine the effects of the compounds on cell viability, a standard colorimetric 3-(4,5-dimethylthiazol-2-yl)-2,5-diphenyltetrazolium bromide (MTT) assay was used to test the cell number. Cells were seeded in a 96-well plate (4×10^3 cells/well) and allowed to attach overnight. After the recovery, cells were treated with 1.56, 3.125, 6.25, 12.5, 25, 50 μM of compounds in culture medium for 48 hrs. Then, 20 μL of MTT (5 mg/mL stock in PBS) per well was added into the medium (200 μL) and incubated for 4 hrs at 37° C. Finally, the culture medium was removed and 200 μL of DMSO were added to dissolve the purple formazan crystals. Absorbance of the solution was measured using microplate reader spectrophotometer (Bio-Rad Laboratories, Inc., Hercules, Calif.) at a wavelength of 570 nm.

[2] = system: KYSE-150 cells; assay: Wound healing assay; type: cell-based, human; conditions: 48 h
Method: Original magnification, 5×.
Further, wound-healing assay was used to test whether those novel compounds could affect cell motility.
A wound-healing assay was performed as follows: cells were seeded in 12 wells plate at 50% confluence in completed medium. After 24 hrs seeding, the monolayer was wounded by scoring with a sterile plastic tip (1 mL), then washed several times with medium to remove cell debris and then incubated in conditioned medium in the absence or presence of tested compounds for various periods of time up to 48 h. […] Cell migration into the wound surface was monitored by Olympus IX71 microscopy and digitally photographed.

[3] = system: Hep G2 (human hepatocellular carcinoma); assay: MTT cytotoxicity assay, Hep G2; type: cell-based; conditions: HepG2, 48 hrs treatment
Method: as §1, §2

[4] = system: KYSE-150 cells; assay: Wound healing assay; type: cell-based, human
[5] = system: KYSE-150 (human oesophagus carcinoma); assay: MTT cytotoxicity assay, KYSE-150; type: cell-based; conditions: 48 hrs treatment
Method: as §1, §2

[6] = system: DLD-1 (human colorectal carcinoma cell line); assay: MTT cytotoxicity assay, DLD-1; type: cell-based; conditions: 48 hrs treatment
Method: as §1, §2

[7] = system: KYSE-150, MKN-45, DLD-1, Hep G2; assay: MTT cytotoxicity assay, summary over the test cell lines; type: cell-based; conditions: Homo sapiens, summary of Table 6
Method: as §1, §2

[8] = all test cell lines, read-out: IC50, cell growth-inhibiting effect against all test cell lines (below or near)
[9] = on different (not all) cell lines, read-out: IC50, inhibitory effect on different cell lines

Row | Compound | IC50 [1] [µM] | cell migration into the wound ([2]; 5 μM) | melting point [°C] | IC50 [3] [µM] | viability of KYSE-150 cells compared to controls ([4]; 5 μM) | IC50 [5] [µM] | IC50 [6] [µM] | cell migration into the wound ([2]; 10 μM) | viability of KYSE-150 cells compared to controls ([4]; 10 μM) | IC50 [7, 8] [µM] | IC50 [7, 9] [µM]
1 | Cc1cc2ccc(CC(=O)c3ccccc3)cc2cc1C [Compound 3da, 2-(6,7-dimethylnaphthalen-2-yl)-1-phenylethanone] | 3.71 | did not migrate into the wound | 142 to 144 | > 50 | did not alter the viability | 7.69 | 0.78 | – | – | – | –
2 | O=C(Cc1ccc2ccccc2c1)c1ccc(OC(F)(F)F)cc1 [Compound 3ah, 2-(naphthalen-2-yl)-1-(4-(trifluoromethoxy)phenyl) ethanone] | > 50 | – | 153 to 154 | > 50 | – | > 50 | > 50 | – | – | – | –
3 | COc1ccccc1C(=O)Cc1ccc2ccccc2c1 [Compound 3ac, 1-(2-methoxyphenyl)-2-(naphthalen-2-yl) ethanone] | > 50 | – | 100 to 102 | > 50 | – | > 50 | > 50 | – | – | – | –
4 | C(#Cc1ccc2cc3c(cc2c1)OCCO3)c1ccccc1 [Compound 3ga, 7-(phenylethynyl)-2,3-dihydronaphtho [2,3-b][1,4] dioxine] | 35.1 | – | 130 to 132 | 45.2 | – | 24.7 | 19.7 | did not migrate into the wound | did not alter the viability | – | –
5 | O=C(Cc1ccc2ccccc2c1)c1ccc(F)cc1 [Compound 3af, 1-(4-fluorophenyl)-2-(naphthalen-2-yl) ethanone] | 4.04 | – | 145 to 147 | 4.23 | – | 2.56 | 5.27 | – | – | ~10 | –
6 | COc1ccc(C(=O)Cc2ccc3ccccc3c2)cc1 [Compound 3ab, 1-(4-methoxyphenyl)-2-(naphthalen-2-yl) ethanone] | 10.1 | – | 125 to 127 | 7.63 | – | 5.19 | 7.89 | did not migrate into the wound | did not alter the viability | ~10 | –
7 | [2H]C(C(=O)c1ccccc1)c1ccc2ccccc2c1 (stereo not drawn) [Compound 3an, 2-(naphthalen-2-yl)-1-phenylethanone-2-D] | 43.1 | – | 129 to 130 | 22 | – | 7.43 | > 50 | did not migrate into the wound | did not alter the viability | – | < 10
8 | N#Cc1ccc(C(=O)Cc2ccc3ccccc3c2)cc1 [Compound 3am, 4-(2-(naphthalen-2-yl)acetyl) benzonitrile] | > 50 | – | 152 to 154 | > 50 | – | 33.5 | > 50 | – | – | – | –
9 | O=C(Cc1ccc2ccccc2c1)c1ccc(Oc2ccccc2)cc1 [Compound 3ag, 2-(naphthalen-2-yl)-1-(4-phenoxyphenyl) ethanone] | > 50 | – | 139 to 141 | 4.84 | – | 1.19 | 4.95 | – | – | – | < 10
10 | O=C(Cc1ccc2ccccc2c1)c1ccc(Br)cc1 [Compound 3ai, 1-(4-bromophenyl)-2-(naphthalen-2-yl) ethanone] | 4.45 | – | 157 to 159 | 1.32 | – | 2.02 | 3.3 | – | – | ~10 | –
11 | C(#Cc1ccc2cc3c(cc2c1)OCO3)c1ccccc1 [Compound 3ha, 6-(phenylethynyl) naphtho [2,3-d][1,3] dioxole] | 20.8 | – | 154 to 155 | 0.65 | – | 3.52 | 0.55 | – | – | – | < 10
12 | COc1cc(OC)cc(C(=O)Cc2ccc3ccccc3c2)c1 [Compound 3ae, 1-(3,5-dimethoxyphenyl)-2-(naphthalen-2-yl) ethanone] | > 50 | – | 70 to 71 | 42.8 | – | > 50 | > 50 | – | – | – | –
13 | Cc1ccc(C)c2cc(CC(=O)c3ccccc3)ccc12 [Compound 3ca, 2-(5,8-dimethylnaphthalen-2-yl)-1-phenylethanone] | > 50 | – | 123 to 124 | > 50 | – | 19.2 | > 50 | – | – | – | –
14 | O=C(Cc1ccc2ccccc2c1)c1ccccc1 [Compound 3aa, 2-(naphthalen-2-yl)-1-phenylethanone] | 15.6 | – | 122 to 124 | 20.8 | – | 10.9 | 12.4 | did not migrate into the wound | did not alter the viability | – | –
15 | Cc1ccc(C(=O)Cc2ccc3ccccc3c2)cc1 [Compound 3aj, 2-(naphthalen-2-yl)-1-(p-tolyl) ethanone] | 12 | – | 144 to 146 | > 50 | – | 18.4 | > 50 | – | – | – | –
16 | O=C(Cc1ccc2cc(Br)c(Br)cc2c1)c1ccccc1 [Compound 3ea, 2-(6,7-dibromonaphthalen-2-yl)-1-phenylethanone] | 12.1 | – | 152 to 154 | 16.1 | – | 2.38 | 2.7 | did not migrate into the wound | did not alter the viability | – | < 10
17 | COc1cccc(C(=O)Cc2ccc3ccccc3c2)c1 [Compound 3ad, 1-(3-methoxyphenyl)-2-(naphthalen-2-yl) ethanone] | > 50 | – | 102 to 103 | > 50 | – | > 50 | > 50 | – | – | – | –
18 | COc1ccc(OC)c2cc(CC(=O)c3ccccc3)ccc12 [Compound 3ba, 2-(5,8-dimethoxynaphthalen-2-yl)-1-phenylethanone] | > 50 | – | 145 to 146 | > 50 | – | > 50 | > 50 | – | – | – | –
19 | O=C(Cc1ccc2ccccc2c1)c1ccc(C(F)(F)F)cc1 [Compound 3al, 2-(naphthalen-2-yl)-1-(4-(trifluoromethyl)phenyl) ethanone] | > 50 | – | 179 to 181 | 29.9 | – | 4.75 | 37.4 | – | – | – | < 10
20 | O=C(Cc1ccc2ccccc2c1)c1ccc(CO)cc1 [Compound 3ak, 1-(4-(hydroxymethyl)phenyl)-2-(naphthalen-2-yl) ethanone] | > 50 | – | 97 to 98 | > 50 | – | 31.3 | 48.2 | – | – | – | –
